Measured values published in paper PMC7143076, “Anion Inhibition Studies of the β-Class Carbonic Anhydrase CAS3 from the Filamentous Ascomycete Sordaria macrospora” (Metabolites, 2020).

Each compound was assayed against T1, CAS3 (Sordaria macrospora, UniProt F7VU04) (assay: stopped-flow CO2 hydrase assay). Details: read-out: CAS2 ^b; CO2 1.7-17 mM; pH 8.3, 10-20 mM TRIS, 10 mM NaClO4, 20 °C; 15 min preincubation; sodium salt.
T1 construct: gene SMAC_03179
Type: biochemical

T1 sequence (F7VU04 1-174 limits assumed): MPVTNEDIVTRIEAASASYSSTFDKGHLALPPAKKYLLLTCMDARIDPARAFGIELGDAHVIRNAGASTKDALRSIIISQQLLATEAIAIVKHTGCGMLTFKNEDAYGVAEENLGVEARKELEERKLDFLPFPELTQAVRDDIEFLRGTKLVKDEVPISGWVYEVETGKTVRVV

Work on `O=C(O)O` [CO3^2-] yielded a Ki of 8 mM.

Same assay, conditions: read-out: CAS3 ^c

Going from `N#CO` [CNO^-] to `N#C[SeH]` [SeCN^-], the Ki rises from 3.2 mM to 7.1 mM (2.2-fold).

`S` [HS^-] and `[N-]=[N+]=[N-]` [N3^-] are within 1.5-fold of each other in Ki: 8.3 mM for the first, 7.2 mM for the second.

Compared with `O=[Se](=O)(O)O` [SeO4^2-], `O=[Te](=O)(O)O` [TeO4^2-] is 2.4-fold higher in Ki: 3.4 mM for the first, 8.1 mM for the second.

Same assay, conditions: read-out: CAS3 ^c; CO2 1.7-17 mM; pH 8.3, 10-20 mM TRIS, 10 mM NaClO4, 20 °C; 15 min preincubation

`NS(N)(=O)=O` [H2NSO2NH2] and `OB(O)c1ccccc1` [Ph-B(OH)2] are within 1.5-fold of each other in Ki: 0.094 mM for the first, 0.097 mM for the second.

Same assay, conditions: read-out: CAS3 ^c; CO2 1.7-17 mM; pH 8.3, 10-20 mM TRIS, 10 mM NaClO4, 20 °C; 15 min preincubation; sodium salt

First: S=C(S)S [CS3^2-]
Second: CCN(CC)C(=S)S [Et2NCS2^-]
The Ki of the first is 9.7-fold higher: 8.6 mM for the first, 0.89 mM for the second. The second binds more tightly here.

Compared with `NS(=O)(=O)O` [H2NSO3H], `O=NO` [NO2^-] is 87-fold higher in Ki: 0.095 mM for the first, 8.3 mM for the second.

Going from `O=C(O)O` [HCO3^-] to `O=[N+]([O-])O` [NO3^-], the Ki rises from 3.4 mM to 8.5 mM (2.5-fold). The first binds more tightly here.

In the case of `N#CS` [SCN^-], the Ki is reported as 7.3 mM.
